Laboratory results from patent publication US9855320B2, “Angiogenin for treatment of glaucoma” (CHUNG-ANG UNIVERSITY INDUSTRY-ACADEMIC COOPERATION …, priority 2011, dated 2018).

Legend:
[1] = tested on: chronic intraocular pressure increase rat model; experiment: Intraocular pressure in chronic intraocular pressure increase rat model (episcleral venous electric ablation); assay type: in vivo
Description: (§1) 0.05 cc/50 g of Tiletimine and Zolazepam-mixed medicament (Zoletil) and Xylazine (Rompum) were mixed at a ratio of 1:1 and then administered to 20 rats by intramuscular injection, thereby anesthetizing the rats. A limbus periphery was divided into four portions, each of which was then subjected to 2 mm dissection at an interval of 90 degrees, and then, two radial conjunctival excisions were performed on upper dissection periphery. […] After surgical isolation of vein, the vein was lifted up by using 3 mm-width spatula to be spaced apart from the peripheral tissue, and then, was subjected to electric ablation while being careful for the peripheral tissue not to have any thermal damage or any mechanical damage due to contact. Intraocular pressure was consecutively measured three or more times by using Tonopen (Solan, Fla., USA), and only reliable intraocular pressure values within 5 percentile were recorded. 10 eyes of 10 rats were daily treated 4 times with angiogenin 10 μl 2 days before test, and even after espisderal venous electric ablation, 4 times a day at time intervals of 6 hours. The other 10 eyes of the rats, as a control, were consecutively treated in the same manner with physiological saline solution 10 μl before and after the ablation. Before the operation, and 3 days, and 1, 2, 4, and 8 weeks after the operation, intraocular pressure was measured, and the rats were sacrificed to extract eyes therefrom, which were then subjected to tissue examination and immunechemical staining with respect to Brn-3a and CD11b, and a reverse transcription polymerase chain reaction was used to measure CD11b value in retinal tissue.

[2] = tested on: glaucoma white rats; experiment: Intraocular pressure change due to instillation in glaucoma white rats (day-time and night-time); assay type: in vivo, rat
Description: Male white rats were used to prepare an episcleral venous ablation glaucoma model. The rat was anesthetized and a limbus periphery was divided into four portions, each of which was then subjected to 2 mm dissection at an interval of 90 degrees, and then, two radial conjunctival excisions were performed on upper dissection periphery. […] Episcleral vein is distinguishable because it is located […] than extra ocular muscle, has relatively low fluidity and a relatively large diameter, contains darker blood in vessel, and is connected to peripheral venous plexus. After surgical isolation of vein, the vein was lifted up by using 3 mm-width wooden spatula to be spaced apart from the peripheral tissue, and then, was subjected to electric ablation while being careful for the peripheral tissue not to have any thermal injury or any mechanical injury due to the contact. After the operation, a chloramphenical ophthalmic agent was administered thereto. Intraocular pressure was consecutively measured three or more times by using Tonopen (Solan, Fla., USA), and only reliable intraocular pressure values within 5% or less were recorded. Only used were rats that had higher intraocular pressure than that before the operation by 5 mmHg or more when measured on the first day, the third day, one week and two weeks before and after operation.
Also, steroid-induced glaucoma model was prepared as follows: 1% prednisolone was instilled twice a day in an amount of 4 μl for 30 days, and only rats that had higher intraocular pressure by 5 mmHg or more before operation were used.
White rats were grouped as a physiological saline solution instillation group, an angiogenin (recombinant human angiogenin, R&D systems, USA) 50 μg/ml instillation group, an angiogenin fragment (angiogenin 108-122, SEQ ID NO: 1, BACHEM, USA) instillation group, and a latanoprost 50 μg/ml instillation group, and each group consisted of 6 rats, that is, 12 eyes. Instillation test was repeatedly performed on normal rats and glaucoma model rats. Ophthalmic agent was administered at 8 AM and 8 PM in an amount of 4 μl to compare day-time effects and night-time effects, and 1, 3, 6, 9, 12, and 24 hours after the instillation, intraocular pressure was measured.

[3] = tested on: CD11b marked macrophage; experiment: CD11b immunochemical staining of retina, chronic intraocular pressure increase model; assay type: in vivo, rat
Description: as §1, with “10 eyes of 10 rats were daily treated 4 times with angiogenin 10 μl 2 days before test, and even after espisderal venous electric ablation, 4 times a day at time intervals of 6 hours. The other 10 eyes of the rats, as a control, were consecutively treated in the same manner with physiological saline solution 10 μl before and after the ablation.” left out, “tissue. […]” for “tissue.”

[4] = tested on: retinal ganglion cell; experiment: Retinal ganglion cell density on H-E staining, chronic intraocular pressure increase model; assay type: in vivo, rat; conditions: 8 weeks after the injury
Description: as §1, with “10 eyes of 10 rats were daily treated 4 times with angiogenin 10 μl 2 days before test, and even after espisderal venous electric ablation, 4 times a day at time intervals of 6 hours. The other 10 eyes of the rats, as a control, were consecutively treated in the same manner with physiological saline solution 10 μl before and after the ablation.” left out, “tissue. […]” for “tissue.”

[5] = tested on: Schlemm's canal peripheral tissue in anterior chamber angle; experiment: H&E staining of Schlemm's canal peripheral tissue in anterior chamber angle of glaucoma model after instillation; assay type: in vivo, rat; conditions: after instillation compared to before instillation
[6] = tested on: corneal chemical burn model; experiment: Corneal chemical burn model: corneal opacity and corneal neoangiogenesis on anterior ocular segment images; assay type: in vivo, rat
Description: Regarding 20 eyes of 20 rats, filter paper was cut to a round shape having a diameter of 4 mm and completely wet with NaOH, and then, placed on corneal and conjunctiva with upper corneal limbus therebetween for 6 seconds, and then, the eyes were washed. 10 eyes of the 10 rats were treated with angiogenin 10 μl four times a day at time intervals of 6 hours two days before test, and even after the NaOH injury, treated 4 times a day. The remaining 10 eyes were treated with physiological saline two days before the injury in the same manner as used with angiogenin. Angiogenin and physiological saline were all administered only up to 7 days after injuring.
Three days, and 1, 2, 4, and 8 weeks after injuring, corneal opacity and neoangiogenesis level were assessed in consideration of images of anterior ocular segment, and on the third day and the seventh day, the respective conjunctiva damaged parts were collected and then subjected to a reverse transcription polymerase chain reaction to assay expression of IL-1a, TGF-β, SDF-1, and caspase-3.
On the corneal neoangiogenesis image, the region where blood vessel was grown was divided in the wedge shape at intervals of 1 hour while the corneal peak was used as a reference, and an area thereof was calculated, and the area was calculated according to this equation: A=C/12×3.1416 [r^2−(r−l)^2]. (A: new vessel area, C: time occupied when divided by 12 hours, r: corneal […], and l: vascular grown length)

[7] = from 2 weeks after the injury to 8 weeks

angiogenin: recombinant human angiogenin (R&D systems); 14.4 kDa single chain protein of 123 amino acids, a ribonuclease inducing angiogenesis
average intraocular pressure ([1]; 1 week after the treatment, control 27.8±4.1): 21.4±6.2 mmHg | average intraocular pressure ([1]; 2 weeks after the treatment, control 25±3.0): 20.8±4.0 mmHg | average intraocular pressure ([1]; 4 weeks after the treatment, control 25.6±1.6): 23.6±2.0 mmHg | average intraocular pressure ([1]; 8 weeks after the treatment, control 23.0±2.4): 21.7±3.4 mmHg | average intraocular pressure compared to the control (in words) ([1]; 3 days, and 1, 2, and 4 weeks after the episcleral venous injury): significantly lower | average intraocular pressure ([1]; before test, 10 eyes): 20.6±1.9 mmHg | average intraocular pressure ([1]; for 8 weeks (overall average), control 25.4±3.6): 21.2±3.8 mmHg | intraocular pressure difference to the control ([1]; third day after the treatment (biggest difference)): 6.75±0.3 mmHg | average intraocular pressure ([1]; three days after the treatment, control 27.3±2.9): 20.7±2.6 mmHg | time after instillation up to which significant intraocular pressure reduction effects were retained ([2]; day-time instillation test): up to 6 hours | time after instillation up to which intraocular pressure reduction effects were retained ([2]; night-time instillation): up to 12 hours | distribution of CD11b marked macrophage in retinal ganglion layer [3]: highly frequently distributed | density of retinal ganglion cell [4]: does not change | diameter and intercellular interval of Schlemm's canal [5]: increased | corneal opacity compared to the control [6, 7]: significantly low | corneal opacity grade (most of the group) [6, 7]: grade 1 or grade 2 | corneal new vessel area ([6]; on the second week after injury): did not change | corneal opacity compared to the control ([6]; up to the seventh day after injury): no significant difference
